Test results: patent EP4268819A1 (priority 2022, dated 2023)
Read-outs that look alike come from different tables or passages of the source.

Tests used:
in vitro [1] = type: cell-based; conditions: human, caco-2; IncuCyte; cell line not specified; read-out: level of growth inhibition (live-cell imaging, growth curves)
From the text: For Analysis IncuCyte® S3 Software was used.

[2] = CC50 calculation, MTT assay, Calu-3; type: cell-based; conditions: human, Calu-3 cells
Experimental: (§1) The cells were treated with drug candidates at the indicated concentrations. Negative control (non-treated), DMSO control and positive control (100% DMSO treated) were added, and plates were then stored at 37 °C, 5 % CO2 for 72h. The old cell media was then discarded, and cells were incubated for 3 h at 37°C, 5% CO2 with 90 µl phenolred-free DMEM-Media and 10 µl of a 5 mg/ml MTT solution per well (#ab146345 Abcam). Afterwards Media was discarded carefully, and Formazan crystals were dissolved on a shaker with 100 µl MTT buffer/well (0.04 N HCI in isopropanol) for 10 minutes. Absorption levels at 570 nm and 650 nm wavelength were measured by Berthold TriStar2 S Multimode Reader and values were normalized to non-treated cells. CC50 was calculated as the half-maximal cytotoxic dose via GraphPad Prism 9 using four-parameter nonlinear regression.
(§2) Absorption levels at 570 nm and 650 nm wavelength were measured and values were normalized to non-treated cells. CC50 was calculated as the half-maximal cytotoxic dose via GraphPad Prism 9 using four-parameter nonlinear regression.
(§3) They now expanded the tests and used MTT assay, which is a procedure used to calculate the redox activity at the mitochondrial membrane of cells and the commercial cell titer glow assay (Promega) to measure cellular ATP. Cell lines tested were the ones used for our antiviral assay, i.e. Calu-3, Caco-2 and Huh7.5 cells.

[3] = tested on: DENV type 2 reporter virus; assay: microbe, parasite or virus in culture; conditions: Dengue virus, Huh7.5, 24 h
icSARS-CoV-2-mNG [4] = assay: IC50 calculation with icSARS-CoV-2-mNG in Calu-3 cells (mNG+/Hoechst+ infection rate); conditions: ic-SARS-CoV-2-mNG in Calu-3 cells; for Therapeutic range: CC50/IC50 (CTG): CC50 by CTG; for Therapeutic range: CC50/IC50 (IncuCyte): CC50 by IncuCyte; for Therapeutic range: CC50/IC50 (MTT): CC50 by MTT
[5] = Cell viability via live cell imaging (IncuCyte), Huh7.5; conditions: human, huh7.5 cells
Experimental: (§4) Calu-3 (40.000/well), Huh7.5 (10.000/well) and CaCo2 (10.000/well) cells were seeded in 96-well plates in DMEM-Media. The cells were treated with the drug compounds at the indicated concentrations, negative control (non-treated), DMSO control and positive control (50% DMSO treated) were added, and plates were then stored in the IncuCyte® at 37 °C, 5 % CO2 for 72h measuring every 3 hours cell confluency via phase channel with 10x objective. For Analysis IncuCyte® S3 Software was used.
(§5) Plates were then stored in the IncuCyte® measuring every 3 hours cell confluency.

in vitro [6] = type: cell-based; conditions: human
Experimental: The old cell media was then discarded, and cells were washed with PBS. 35 µl DMEM-Media and 35 µl CellTiterGlow® reagent (#G7571, Promega) were added and incubated for 2 minutes on an orbital shaker protected from light. Afterwards plates were incubated for 10 minutes without shaking to stabilize the luminescent signal. 50 µl of the supernatant was transferred to a white 96 well measure plate and measured by Berthold TriStar2 S Multimode Reader. The background signal was determined by the luminescent signal of the positive control subtracted from the values used for analysis. The data was then normalized to the non-treated control. CC50 was calculated as the half-maximal cytotoxic dose via GraphPad Prism 9 using four-parameter nonlinear regression.
Luminescent signals were measured by Berthold TriStar2 S Multimode Reader. The data was then normalized to the non-treated control. CC50 was calculated as the half-maximal cytotoxic dose via GraphPad Prism 9 using four-parameter nonlinear regression.

Calu-3 cells [7] = tested on: Calu-3 cells
Experimental: as §4, §5

[8] = CC50 calculation, MTT assay, Huh7.5; type: cell-based; conditions: human, Huh7.5 cells
Experimental: as §1, §2, §3

icSARS-CoV-2-mNG [9] = type: cell-based, SARS-CoV-2
in vitro [10] = conditions: human, calu-3 cells, CC50 (IncuCyte), confluency every 3 hours for 72h
Experimental: as §4, §5

[11] = tested on: DENV type 2 reporter virus
Calu-3 cells [12] = assay: Toxicity by staining of the nuclei (Hoechst+ cell count) in the icSARS-CoV-2-mNG IC50 experiment; conditions: Calu3 cells in the icSARS-CoV-2-mNG IC50 experiment
ZIKA = conditions: against ZIKA; reported, with a low therapeutic index; cited from earlier work
DENV = conditions: against DENV; reported, with a low therapeutic index; cited from earlier work
Huh7.5 cells = assay: CC50 calculation, MTT assay, Huh7.5; type: cell-based; conditions: 72h, 4320 min
Experimental: as §1, §2, §3

CaCo2 and Calu3 cells = conditions: screening at 50, 10, 2 µM
[13] = Calu3 and Caco2 cells, 24h pre-treatment, […], 50, 10, 2 µM (Atpenin A5 10, 2, 0.4 µM)

## COc1[nH]c(=O)c(C(=O)[C@@H](C)C[C@H](C)[C@@H](Cl)CCl)c(O)c1OC [Atpenin A5, atpenin A5]
In vitro [1]
  CC50 at 72 h: > 60 µM
[2]
  CC50 at 72 h: 1.2 µM
[3]
  IC50: 0.27 µM
icSARS-CoV-2-mNG [4]
  Therapeutic range: CC50/IC50 (CTG): CTG: 1.72
  Therapeutic range: CC50/IC50 (IncuCyte): IncuCyte: > 320
  Therapeutic range: CC50/IC50 (MTT): MTT: 24
[5]
  CC50 at 72 h: 65 µM
In vitro [6]; Calu-3 cells, 72h, read-out: CC50 (CTG)
  CC50 at 72 h: 0.86 µM
In vitro [6]; Huh7.5 cells, 72h, read-out: CC50 (CTG)
  CC50 at 72 h: 62 µM
Calu-3 cells [7]; read-out: CC50 (IncuCyte), confluency every 3 hours for 72h, 4320 min
  CC50: > 80 µM
[8]
  CC50 at 72 h: 101 µM
icSARS-CoV-2-mNG [9]; [13]
  SARS-CoV-2 infection of the cell lines (infection rate mNG+/Hoechst+ cells): inhibited SARS-CoV-2 infection of the cell lines in a dose-dependent manner
In vitro [10]
  CC50 at 72 h: > 160 µM
[11]; Dengue Virus in Huh7.5 cells, CC50 by CTG
  Therapeutic range: CC50/IC50 (CTG): CTG: 229.5
[11]; Dengue Virus in Huh7.5 cells, CC50 by IncuCyte
  Therapeutic range: CC50/IC50 (IncuCyte): IncuCyte: 240.7
[11]; Dengue Virus in Huh7.5 cells, CC50 by MTT
  Therapeutic range: CC50/IC50 (MTT): MTT: 375.2

## CN(C)C(=N)N=C(N)N [Metformin]
Calu-3 cells [12]
  toxicity (staining of the nuclei, cell count): without any cytotoxicity
ZIKA
  antiviral activity: mM range
DENV
  antiviral activity: mM range

## [H]/N=C(/N)N/C(=N/[H])NCCc1ccccc1 [Phenformin]
icSARS-CoV-2-mNG [4]
  Therapeutic range: CC50/IC50 (CTG): CTG: 1306.4
  Therapeutic range: CC50/IC50 (IncuCyte): IncuCyte: 867.1
  Therapeutic range: CC50/IC50 (MTT): MTT: 876.3
In vitro [6]; caco-2
  CC50 at 72 h: > 2 µM
In vitro [6]; calu-3 cells
  CC50 at 72 h: > 2 µM
In vitro [6]; huh7.5 cells
  CC50 at 72 h: > 2 µM
Calu-3 cells [7]; human, 72h
  CC50: 1500 µM
Calu-3 cells [12]
  toxicity (staining of the nuclei, cell count): without any toxicity
Huh7.5 cells
  CC50: 61.2 µM
icSARS-CoV-2-mNG [9]
  SARS-CoV-2 infection of the cell lines (infection rate mNG+/Hoechst+ cells): inhibited SARS-CoV-2 infection of the cell lines in a dose-dependent manner
[11]; human, huh7.5 cells
  Therapeutic range: CC50/IC50 (CTG): CTG: 109.2
  Therapeutic range: CC50/IC50 (IncuCyte): IncuCyte: 59.9
  Therapeutic range: CC50/IC50 (MTT): MTT: 3.3

## CC(C)Cc1nn(C)c(=O)c2c(SCCCO)n(Cc3cccc4ccccc34)cc12 [SR13800]
CaCo2 and Calu3 cells
  toxicity (cell viability by Hoechst staining of the nucleus): toxic

## O[C@H]1[C@H](O)[C@@H](O)[C@H](O)[C@@H](O)[C@@H]1O [Scyllo-Inositol, Scyllo-inositol]
icSARS-CoV-2-mNG [9]; [13]
  SARS-CoV-2 infection of the cell lines (infection rate mNG+/Hoechst+ cells): did not show any activity
